Test [1] relates to anti-DiAcSpm polyclonal antibody. Briefly: Evaluation of immunizing antigen lots (inhibition of polyclonal antibody reaction with solid-phased antigen). The format is binding, rabbit. The conditions noted are these: six lots compared; absorbance at 492 nm; FIG. 1. The procedure: The antigen was evaluated using DiAcSpm specific polyclonal antibody. Six lots of the antigen prepared in (1) above were examined on their activities to inhibit the reaction of anti-DiAcSpm polyclonal antibody with solid-phased AcSpm-HMC-AcSpm, by the method described later in Experimental Example 1.
AcSpm-HMC-peptide diluted with PBS (pH 7.0) to 0.07 μg/ml was added to 96-well microtiter plates at 50 μl/well as an antigen to be solid-phased, and left at 25° C. for 1.5 hours. Subsequently, the plates were washed with 0.05% Tween20-containing PBS (pH 7.0) (PBST) three times. Then, 0.5% gelatin-containing PBST (blocking solution) was added thereto at 200 μl/well and left at 25° C. for 1 hour. The plates were frozen at −30° C. overnight to freeze the blocking solution for freeze-drying to thereby prepare freeze-dried plates. To each well of dilution plates, 70 μl of 10 μg/ml anti-DiAcSpm polyclonal antibody and 70 μl of each lot of the immunizing antigen AcSpm-GMB-AMS-BSA with serially varied concentration were mixed and added, and left at 25° C. for 1 hour for pre-reaction. Subsequently, to each well of the freeze-dried plates prepared in Experimental Example 1, 300 μl of PBST was added, left at 25° C. for 30 minutes and then re-washed with PBST once. To each well of these plates, 50 μl of the pre-reacted reaction solution was added and left at 25° C. for 1 hour. Then, after washing with PBST three times, 50 μl of 80-fold dilution of HRP-labeled anti-rabbit IgG antibody (Bio-Rad) was added to each well and left at 25° C. for 1 hour. Subsequently, after washing with PBST three times, 100 μl of o-phenylenediamine solution diluted with 0.012% hydrogen peroxide-containing 0.1 M citrate phosphate buffer (pH 5.0) to 0.5 mg/ml was added to each well and left at 25° C. for 9 minutes. Then, absorbances at 492 nm were measured with an ELISA reader.

For test [2], the system named is anti-DiAcSpm monoclonal antibody CN647. Briefly: Crossreactivity test on cloned wells (culture supernatant of CN647 strain). The conditions noted are these: all three cloned wells, one designated CN647; FIG. 3. The format is binding, mouse. The procedure: Briefly, cells were diluted with 20% FCS-containing RPMI medium to a density of 2.5 cells/ml and added to two 96-well culture plates at 200 μl/well. After five days, single colonies were examined. As a result, a single colony was confirmed in 17 wells out of the two 96-well plates. After 10 days, antibody titers to DiAcSpm were measured in culture supernatants by the method described in Experimental Example 2. Three wells were positive. Cells in these three wells were cultured further and tested for crossreactivities with AcSpm, N^1-AcSpd, N^8-AcSpd, DiAcSpd and AcPut by the method described in Experimental Example 3. […] Thus, antibodies sufficient to achieve the object have been obtained (FIG. 3). One of them was designated “established clone CN647”.
Antibody titers in diluted culture supernatants were measured by the method described in Experimental Example 2. Based on the results, the dilution rate with which the absorbance at 492 nm becomes 1 was selected. To each well of dilution plates, 70 μl of culture supernatant diluted at the dilution rate selected above and 70 μl of DiAcSpm solution with serially varied concentration or a structure analog of DiAcSpm (N^1-AcSpm, N^1-AcSpd, DiAcSpd, or the like) with serially varied concentration were mixed and added, and then left at 25° C. for 1 hour for pre-reaction. Subsequently, to each well of freeze-dried plates prepared in the same manner as in Experimental Example 1, 300 μl of BST was added, left at 25° C. for 30 minutes and re-washed with BST once. To the resultant plates, the pre-reacted reaction solution was added at 50 μl/well and left at 25° C. for 1 hour. Then, after washing with PBST three times, 50 μl of 80-fold dilution of HRP-labeled anti-mouse IgG antibody (KPL) was added to each well and left at 25° C. for 1 hour. […] Then, absorbances at 492 nm were measured with an ELISA reader.

The target of test [3] is anti-DiAcSpm monoclonal antibody. Briefly: Kit competitive ELISA with solid-phased AcSpm-HMC-peptide, crossreactivities of structure analogs. The format is binding, mouse. The note with it: for KiDiAcSpm/Ki"S" (%) . . . (1): 15 ng/ml antibody, 0.07 μg/ml solid-phased antigen; for Crossreactivity (1) × (2) (%): crossreactivity in urine, Ki ratio × urinary ratio. The procedure: As a measuring kit, competitive ELISA using a solid-phased antigen AcSpm-HMC-peptide was performed based on known methods (Hiramatsu, K. et al., J. Biochem., 124, 231-236 (1998)). As the primary antibody, the monoclonal antibody prepared in Example 1 was used. As the secondary antibody, a commercial, goat-derived HRP-labeled anti-mouse IgG antibody (KPL) was used. The concentration of the solid-phased antigen was set at 0.07 μg/ml based on the concentration employed in a kit using anti-DiAcSpm polyclonal antibody. With respect to the concentration of anti-DiAcSpm monoclonal antibody to be used, 15 ng/ml was selected so that 40% of the maximum reaction efficiency (the point at which the absorbance at 492 nm becomes 1) is achieved when the concentration of the solid-phased antigen AcSpm-HMC-peptide is 0.07 μg/ml (FIG. 4). The dilution ratio of the goat-derived HRP-labeled anti-mouse IgG antibody was set at 2,500-fold from experience.
First, under the conditions established in (1) above, crossreactivities of structure analogs of DiAcSpm with DiAcSpm in urine samples were examined. Briefly, the 50% inhibition activity concentrations of DiAcSpm, N^1-AcSpm, DiAcSpd, N^1-AcSpd, N^8-AcSpd and DiAcPut in the kit were examined, and the crossreactivities of other structure analogs with DiAcSpm in urine were calculated. As a result, crossreactivity with N^1-AcSpd (whose crossreactivity is most apprehended) was 1.62%; crossreactivity with AcSpm was 0.54%; crossreactivity with DiAcSpd was 0.002%; crossreactivity with N^8-AcSpd was 0.01%; crossreactivity with AcPut was 0.01%; and the total crossreactivity was 2.17% (Table 2).
(In general: An ELISA detects its analyte on a solid surface through an enzyme-linked reagent.)

Test [4] deals with monoclonal antibodies to DiAcSpm (Fujiwara et al., Japanese Unexamined Patent Publication No. H11-75839). The note with it: prior-art monoclonal antibodies; cited from earlier work.
Test [5] has the same test system. Briefly: Prior-art 50% binding inhibition of immunoreaction (Fujiwara et al. antibodies). The note with it: crossreactivity with DiAcSpm taken as 100; N^1-AcSpd about 25 times DiAcSpm in urine. The text has this:
Recently, Fujiwara et al. prepared monoclonal antibodies to DiAcSpm (Japanese Unexamined Patent Publication No. H11-75839). With these antibodies, 50% binding inhibition activity against immunoreaction with DiAcSpm is only about 100 times as much as 50% binding inhibition activity against immunoreaction with N^1-acetylspermidine (hereinafter expressed as “N^1-AcSpd”) and is only about 20 times as much as 50% binding inhibition activity against immunoreaction with N^1-acetylspermine (hereinafter expressed as “N^1-AcSpm”) which is a monoacetylated form of spermine. Since the amount of N^1-AcSpd in the urine of healthy persons is about 25 times as much as the amount of DiAcSpm therein, the crossreactivity of the above antibody with N^1-AcSpd in the urine of healthy persons is 25 when the crossreactivity of the antibody with DiAcSpm therein is taken as 100. Therefore, the antibody may yield false-positive results. Accordingly, in order to enhance the measuring sensitivity for DiAcSpm, a DiAcSpm-specific monoclonal antibody whose crossreactivities with N^1-AcSpd and N^8-acetylspermidine (hereinafter expressed as “N^8-AcSpd”) are still lower is required.

Test [6] relates to anti-DiAcSpm antibodies in culture supernatants of DiAcSpm positive clones. Briefly: Crossreactivity test on antibody production positive clones (culture supernatant, competitive ELISA). The format is binding, mouse. The text has this:
Out the DiAcSpm positive clones obtained above, 51 clones with relatively high antibody titers were selected and tested for crossreactivity with N^1-AcSpd (which is present in urine abundantly and believed to cross-react relatively easy from the results of researches made so far) by the method described later in Experimental Example 3. As a result, with respect to two wells, the 50% reaction inhibition activity of N^1-AcSpd was about 800 times as much as that of DiAcSpm; with respect to one well, the 50% reaction inhibition activity of N^1-AcSpd was 3,000 times as much as that of DiAcSpm; and with respect to the other wells, the 50% reaction inhibition activity of N^1-AcSpd was 0-200 times as much as that of DiAcSpm.
Antibody titers in diluted culture supernatants were measured by the method described in Experimental Example 2. Based on the results, the dilution rate with which the absorbance at 492 nm becomes 1 was selected. To each well of dilution plates, 70 μl of culture supernatant diluted at the dilution rate selected above and 70 μl of DiAcSpm solution with serially varied concentration or a structure analog of DiAcSpm (N^1-AcSpm, N^1-AcSpd, DiAcSpd, or the like) with serially varied concentration were mixed and added, and then left at 25° C. for 1 hour for pre-reaction. Subsequently, to each well of freeze-dried plates prepared in the same manner as in Experimental Example 1, 300 μl of BST was added, left at 25° C. for 30 minutes and re-washed with BST once. To the resultant plates, the pre-reacted reaction solution was added at 50 μl/well and left at 25° C. for 1 hour. Then, after washing with PBST three times, 50 μl of 80-fold dilution of HRP-labeled anti-mouse IgG antibody (KPL) was added to each well and left at 25° C. for 1 hour. Subsequently, after washing with PBST three times, 100 μl of o-phenylenediamine solution diluted with 0.012% hydrogen peroxide-containing 0.1 M citrate phosphate buffer (pH 5.0) to 0.5 mg/ml was added to each well and left at 25° C. for 9 minutes. Then, absorbances at 492 nm were measured with an ELISA reader.

Take AcSpm-GMB-AMS-BSA [lot No. 6]: the “activity to inhibit the reaction of anti-DiAcSpm polyclonal antibody with solid-phased antigen” value (“activity to inhibit the reaction” below) in test [1] is on record as “highest inhibition activity”.

`CC(=O)NCCCNCCCCNCCCNC(C)=O` [DiAcSpm, N^1,N^12-diacetylspermine]: the “50% inhibition activity of DiAcSpm relative to that of the analog” value in test [2] is reported as “about 100,000 times”. Moreover, in test [3], the “KiDiAcSpm/Ki"S" (%) . . . (1)” value was determined as 100% and the “Crossreactivity (1) × (2) (%)” value was determined as 100%.

In the case of AcSpm-GMB-AMS-BSA [lot No. 1], the “activity to inhibit the reaction” value in test [1] was “highest inhibition activity”.

Take `CC(=O)NCCCNCCCCNCCCN` [AcSpm, N^1-acetylspermine]: in test [2], the “50% inhibition activity of DiAcSpm relative to that of the analog” value was “about 70 times”. In test [3], the “KiDiAcSpm/Ki"S" (%) . . . (1)” value was 1.7072% and the “Crossreactivity (1) × (2) (%)” value is 0.54%. Moreover, the “50% binding inhibition activity against immunoreaction with DiAcSpm relative to that with the analog” value in test [4] is listed as “about 20 times”.

With `CC(=O)NCCCNCCCCN` [N1-AcSpd, N^1-acetylspermidine], in test [5], the “crossreactivity of the antibody with the analog in the urine of healthy persons” value is reported as 25. In addition, the “50% reaction inhibition activity of N^1-AcSpd relative to that of DiAcSpm” value is on record as 3,000 times in test [6] (one well of 51 selected clones), 0-200 times in test [6] (the other wells of 51 selected clones) and “about 800 times” in test [6] (two wells of 51 selected clones). Further, the “50% inhibition activity of DiAcSpm relative to that of the analog” value in test [2] is given as “about 1,000 times”. The “KiDiAcSpm/Ki"S" (%) . . . (1)” value in test [3] was found to be 0.0610%. Further, the “Crossreactivity (1) × (2) (%)” value in test [3] was 1.62%. For the same compound, the “50% binding inhibition activity against immunoreaction with DiAcSpm relative to that with the analog” value in test [4] is recorded as “about 100 times”.

In the case of `CC(=O)NCCCCNCCCNC(C)=O` [DiAcSpd, N^1,N^8-diacetylspermidine], in test [3], the “KiDiAcSpm/Ki"S" (%) . . . (1)” value amounted to 0.0008% and the “Crossreactivity (1) × (2) (%)” value stood at 0.002%.

Consider `CC(=O)NCCCCN` [AcPut], for which, in test [3], the “KiDiAcSpm/Ki"S" (%) . . . (1)” value amounted to 0.0001% and the “Crossreactivity (1) × (2) (%)” value is given as 0.01%.

Consider `CC(=O)NCCCCNCCCN` [N8-AcSpd, N^8-acetylspermidine], for which, in test [3], the “KiDiAcSpm/Ki"S" (%) . . . (1)” value came out at 0.0003% and the “Crossreactivity (1) × (2) (%)” value came to 0.01%.

As for AcSpm-GMB-AMS-BSA [lot No. 5], in test [1], the “activity to inhibit the reaction” value is on record as “comes next”.

The values are drawn from patent US7700741B2, “High affinity anti-N1,N12-diacetylspermine monoclonal antibody” (Trans Genic Inc., priority 2005, dated 2010).
